Active and inactive are the calls of the source. The calls are words filed in the database; no cut-off is given here. Starred links: 1 amine or outer side, 2 acyl side, 3 side chain; linkers in the order of their positions; H or OH if unused. Non-standard residues stand in square brackets, D forms with d. Residues, ends and D or L forms follow the SMILES beside them. X1 = O=NSCC[C@H](N[*:1])C(=O)[*:2]
How the values were obtained:
[1] = target: T1, Tyrosine-protein phosphatase non-receptor type 22 (Homo sapiens) (UniProt Q9Y2R2); experiment: Oxidative inactivation of lymphoid tyrosine phosphatase at 1 to 100 uM by DiFMUP assay; conditions: TDE = time-dependent effect
T1 sequence (whole entry): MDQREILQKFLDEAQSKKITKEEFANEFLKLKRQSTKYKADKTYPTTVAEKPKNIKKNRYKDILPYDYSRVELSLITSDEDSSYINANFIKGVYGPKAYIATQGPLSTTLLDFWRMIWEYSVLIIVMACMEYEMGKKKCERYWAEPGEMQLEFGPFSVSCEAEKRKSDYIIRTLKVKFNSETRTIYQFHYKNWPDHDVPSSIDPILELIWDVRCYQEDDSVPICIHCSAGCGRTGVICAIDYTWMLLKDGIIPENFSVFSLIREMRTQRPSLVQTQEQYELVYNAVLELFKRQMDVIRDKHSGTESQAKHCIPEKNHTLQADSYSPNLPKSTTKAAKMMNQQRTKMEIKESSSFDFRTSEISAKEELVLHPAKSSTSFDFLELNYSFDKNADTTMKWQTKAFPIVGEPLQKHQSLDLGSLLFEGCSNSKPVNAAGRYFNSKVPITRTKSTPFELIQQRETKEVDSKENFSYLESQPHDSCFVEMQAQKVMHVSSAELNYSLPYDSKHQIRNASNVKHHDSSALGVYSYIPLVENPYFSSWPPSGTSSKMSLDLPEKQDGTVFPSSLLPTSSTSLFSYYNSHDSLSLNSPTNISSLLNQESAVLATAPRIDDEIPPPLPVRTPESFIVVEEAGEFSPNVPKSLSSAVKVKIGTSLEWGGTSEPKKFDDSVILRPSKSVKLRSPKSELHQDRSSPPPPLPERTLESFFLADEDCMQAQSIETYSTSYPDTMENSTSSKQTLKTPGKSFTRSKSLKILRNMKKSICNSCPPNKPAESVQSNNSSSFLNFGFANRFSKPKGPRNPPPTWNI

[2] = target: T1, Tyrosine-protein phosphatase non-receptor type 22 (Homo sapiens); experiment: Oxidative competitive inactivation of lymphoid tyrosine phosphatase by Lineweaver-Burk plot
[3] = target: T1, Tyrosine-protein phosphatase non-receptor type 22 (Homo sapiens); experiment: Oxidative inactivation of lymphoid tyrosine phosphatase by DiFMUP assay in presence of L-cysteine
[4] = target: T1, Tyrosine-protein phosphatase non-receptor type 22 (Homo sapiens); experiment: Oxidative inactivation of lymphoid tyrosine phosphatase assessed as NO release by ESI-MS spectrum
[5] = target: T2, Tyrosine-protein phosphatase non-receptor type 22 (Homo sapiens, UniProt Q9Y2R2); experiment: (§1) Oxidative inactivation of lymphoid tyrosine phosphatase by DiFMUP assay
T2 sequence (Q9Y2R2 whole entry): T1 sequence (whole entry)

[6] = target: T1, Tyrosine-protein phosphatase non-receptor type 22 (Homo sapiens); experiment: as §1

For CC[C@H](C)[C@H](NC(=O)[C@H](CC(C)C)NC(=O)[C@H](CCCNC(=N)N)NC(=O)[C@H](C)NC(C)=O)C(=O)N[C@@H](CCC(=O)O)C(=O)N[C@@H](CC(=O)O)C(=O)N[C@@H](CC(N)=O)C(=O)N[C@@H](CCC(=O)O)C(=O)N[C@@H](CCSN=O)C(=O)N[C@H](C(=O)N[C@@H](C)C(=O)N[C@@H](CCCNC(=N)N)C(=O)N[C@@H](CCC(=O)O)C(=O)NCC(N)=O)[C@@H](C)O (Ac-ARLIEDNE[X1]TAREG-NH2), the Activity [1] was “tde”, the Activity [2] was “Active” and the Activity [3] was “inactive”. The Activity [4] was “Active”, the Ki [5] was 7 µM and the Activity [6] was “Dose-dependent effect”. For the same compound, the Kinact [6] was 0.0472 min⁻¹.

Source: ChEMBL document CHEMBL1641567, “Oxidative inactivation of the lymphoid tyrosine phosphatase mediated by both general and active site directed NO donors” (Bioorg Med Chem Lett, 2011)
